Data published in US12594283B2 (The Medical College of Wisconsin, Inc., priority 2019, dated 2026).

What was measured:
[1] = tested on: mitochondrial complex III; assay: Complex III-driven OCR in A549, LLC and LKR13 cells; format: cell-based, human, mouse; settings: A549, LLC, LKR13 cells (FIG. 4)
Protocol: (§1) FIG. 4. […] Dashed lines represent the fitting curves used for determination of the IC50 values.
(§2) Mitochondrial bioenergetic function was measured in real time using the Seahorse XF 96 Extracellular Flux Analyzer (Agilent, North Billerica, MA).^11-13,22 The OCR-based assessment of mitochondrial complex activities was carried out on acutely permeabilized cells in the presence of different mitochondrial substrates, i.e., pyruvate/malate, for complex I and duroquinol for complex III.^11,14,31,32 Rot, malonate, and antimycin A (Sigma-Aldrich, St. Louis, MO) were used as specific inhibitors of mitochondrial complexes I, II, and III, respectively. Briefly, cells that were intact after treatments were immediately permeabilized using the Seahorse XF Plasma Membrane Permeabilizer (Agilent). The mitochondrial complex I-driven OCR was assayed in mannitol and sucrose buffer^31 containing 10 mM pyruvate and 1.5 mM malate (substrates for complex I) and 10 mM malonate (which inhibits complex II activities). […] The mitochondrial complex-dependent oxygen consumption (calculated as Rot- or antimycin A-inhibitable OCR equals basal OCR less OCR after Rot or antimycin A injection) was plotted against concentrations to determine the IC50 values.

MiaPaCa-2 and A549 cells = assay: Cellular uptake by LC-MS/MS; format: cell-based, human; settings: Mito10-ATO 0.1 and 1 μM, ATO 1-10 μM; 1, 2, 4 and 24 h
Protocol: The compounds were extracted according to the published experimental protocol.^11,12 Briefly, cells were washed twice with ice-cold DPBS (Dulbecco's Phosphate Buffered Saline) and harvested. The cell pellet was immediately frozen in liquid nitrogen and stored at −80° C. For the extraction, the pellet was homogenized in 200 μl DPBS (2 μl were taken for protein assay) and extracted twice with a dichloromethane:methanol (2:1) mixture. The organic layers were combined and dried using a SpeedVac concentrator (Thermo Fisher Scientific, Waltham MA). The dry residue was dissolved in ice-cold methanol and taken for LC-MS/MS analysis. LC-MS/MS analyses were performed using a Kinetex Phenyl-Hexyl column (50 mm×2.1 mm, 1.7 μm; Phenomenex, Torrance, CA) equilibrated with a water:acetonitrile mixture (4:1) containing 0.1% formic acid. Compounds were eluted by increasing the content of acetonitrile from 20% to 100% over 4 min and detected using the MRM (multiple reaction monitoring) mode.

[2] = tested on: CD4+ T cells from SMARTA triple reporter mice; assay: In vitro differentiation of CD4+ T regulatory cells, flow cytometry; format: cell-based, mouse
Text: FIG. 5. In vitro differentiation of CD4^+ T regulatory cells under varying concentrations of Mito-ATOs and controls. After six days of culture, cells were stained for flow cytometry analysis. (left) Live/dead staining to assess the percentage of live CD4+ T cells within the lymphocyte gate. (middle) Teff cell function is shown as the frequency of IFNγ-GFP positive cells within the live CD4^+ T cells. (right) The percentage of Treg cells is shown as the frequency of FoxP3^+CD25^+ cells within the live CD4^+ T cells.
After six days, cells were stained to assess viability, phenotype, and function using the flow cytometry.
Mice. SMARTA triple reporter mice were generated in the following manner. First, IL-10 and IL-21 double-reporter mice^33 were generated by cross-breeding IL-21tRFP mice^34-35 with 10 BiT mice (kindly provided by Dr. Casey Weaver, University of Alabama at Birmingham). Double reporter mice were then crossed with GREAT (interferon-gamma reporter with endogenous polyA transcript) mice^36 from Jackson Laboratory (Stock No. 017581). These triple-reporter mice were then crossed with SMARTA mice^37 (kindly provided by Dr. Dorian McGavern, National Institutes of Health). Mice were bred and maintained in a closed breeding facility, and mouse handling conformed to the requirements of the Medical College of Wisconsin Institutional Animal Care and Use Committee guidelines. All experimental protocols were approved by the Medical College of Wisconsin Institutional Animal Care and Use Committee.
Cell culture. To differentiate CD4^+ T cells into a T regulatory cell phenotype, splenocytes from SMARTA triple-reporter mice were processed and the red blood cell lysed using an ACK (ammonium-chloride-potassium) lysis buffer. The cells were then activated with 1 μg/mL […] peptide (GenScript, Piscataway, NJ) and 5 ng/mL TGF-β1 (Shenandoah Biotechnology, Inc., Warwick, PA). […] Cells were cultured for six days and split once cells reached confluency; cells were replenished with IL-2 and compound accordingly. After six days in culture, cells were stained to assess the viability and phenotypic analysis via flow cytometry. LIVE/DEAD fixable violet or aqua dead cell stain (Invitrogen, Carlsbad, CA) was used to assess cell viability. The following antibodies were used for flow cytometry staining: PercP anti-mouse CD4 (clone: GK1.5; BioLegend, San Diego, CA), APC/Cy7 anti-mouse CD25 (clone: PC61; BioLegend), and PE anti-mouse FOXP3 (clone: FJK-16S; eBioscience, San Diego, CA). Flow cytometry data were acquired using a BD LSRII (BD Biosciences, CA) flow cytometer and analysed using FlowJo (Treestar, Inc., Ashland, OR).

[3] = tested on: A549 human lung cancer cells; assay: A549 cell proliferation, IncuCyte; format: cell-based
Text: (§3) FIG. 3. […] Cell proliferation was monitored in real-time with the continuous presence of indicated treatments until the end of each experiment. The cell confluence (as control groups reach 98% confluency) is plotted against concentration. Dashed lines represent the fitting curves used to determine the IC50 values as indicated.
(§4) The IncuCyte Live-Cell Imaging system (IncuCyte Essen Bioscience Inc., Ann Arbor, MI) was used to monitor cell proliferation.^11-13 As shown in previous publications,^11,12 this imaging system is probe-free and noninvasive, and enables continuous monitoring of cell confluence over several days. The increase in the percentage of cell confluence was used as a surrogate marker of cell proliferation. In a 96-well plate, cells were plated at 1,000 cells per well in triplicates and left to adhere overnight.

[4] = tested on: LLC mouse lung cancer cells; assay: LLC cell proliferation, IncuCyte; format: cell-based
Text: as §3, §4

mitochondrial complex I = assay: Complex I-driven OCR in A549, LLC and LKR13 cells; format: cell-based, human, mouse; settings: A549, LLC, LKR13 cells (FIG. 4)
Protocol: as §1, §2

O=C1C(OCCCCCCCCCC[P+](c2ccccc2)(c2ccccc2)c2ccccc2)=C([C@H]2CC[C@H](c3ccc(Cl)cc3)CC2)C(=O)c2ccccc21 [Mito10-ATO]
inhibition of complex III-induced oxygen consumption [1]: inhibited both mitochondrial complex I- and III-induced oxygen consumption | cellular uptake / intracellular accumulation (MiaPaCa-2 and A549 cells): accumulated inside the cells with time | Treg (FoxP3+CD25+) differentiation and/or survival ([2]; six days culture with TGFβ and IL-2, ATO, butyl-ATO, decyl-ATO up to 60 μM): inhibited Foxp3^+ Treg differentiation and/or survival | Teff cell IFNγ production ([2]; six days culture, IFNγ-GFP positive cells within live CD4+ T cells): promoted Teff cell IFNγ production in a dose-dependent manner | effect on cell proliferation [3]: effective at halting cell proliferation | effect on cell proliferation [4]: effective at halting cell proliferation | inhibition of complex I-induced oxygen consumption (mitochondrial complex I): inhibited both mitochondrial complex I- and III-induced oxygen consumption
